target: human RIP1 kinase domain (2-375) (Homo sapiens (Human), UniProt Q13546); assay: biochemical; format: biochemical; details: human RIP1 kinase domain (2-375), Transcreener ADP assay, 50 uM ATP, 2 hours incubation; read-out: RIP1 Ki
Outline: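 Ki^app comes from Morrison tight-binding fits of fractional activity versus compound concentration. Activity was read as ADP production, via tracer displacement lowering fluorescence polarization (633 nm laser). Conditions: 2 h, 50 nM insect-cell-expressed enzyme, 50 uM ATP, 30 mM MgCl2, 1 mM DTT, 0.5% DMSO, pH 7.5 Hepes.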

human RIP1 kinase domain (2-375), sequence (Q13546 2-375): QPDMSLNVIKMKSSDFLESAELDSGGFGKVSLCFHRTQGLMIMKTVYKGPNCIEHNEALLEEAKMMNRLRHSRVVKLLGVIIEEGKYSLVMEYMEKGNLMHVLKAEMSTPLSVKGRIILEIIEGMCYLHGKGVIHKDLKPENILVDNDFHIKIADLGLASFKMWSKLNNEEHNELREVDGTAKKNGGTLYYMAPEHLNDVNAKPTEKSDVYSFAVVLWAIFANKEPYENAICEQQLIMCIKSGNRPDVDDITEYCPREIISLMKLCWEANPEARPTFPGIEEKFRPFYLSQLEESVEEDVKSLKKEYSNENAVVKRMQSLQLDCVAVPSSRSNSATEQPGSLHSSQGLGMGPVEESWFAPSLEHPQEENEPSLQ

For `CN1C(=O)[C@@H](NC(=O)c2ncn(Cc3c(F)cccc3F)n2)CCn2nc(C3CC3)cc21` [Example 302, (S)—N-(2-cyclopropyl-4-methyl-5-oxo-5,6,7,8-tetrahydro-4H-pyrazolo[1,5-a][1,3]diazepin-6-yl)-1-(2,6-difluorobenzyl)-1H-1,2,4-triazole-3-carboxamide], which Ki is on record?
The Ki was 26.8 nM.

Which Ki does the source give for `CN1C(=O)[C@@H](NC(=O)c2ncn(Cc3cc(F)cc(F)c3)n2)CCn2nc(C3CC3)cc21` [Example 303, (S)—N-(2-cyclopropyl-4-methyl-5-oxo-5,6,7,8-tetrahydro-4H-pyrazolo[1,5-a][1,3]diazepin-6-yl)-1-(3,5-difluorobenzyl)-1H-1,2,4-triazole-3-carboxamide] here?
Its Ki is 18.5 nM.

`CN1C(=O)[C@@H](NC(=O)c2ncn(Cc3cc(F)ccc3F)n2)CCn2nc(C3CC3)cc21` [Example 304, (S)—N-(2-cyclopropyl-4-methyl-5-oxo-5,6,7,8-tetrahydro-4H-pyrazolo[1,5-a][1,3]diazepin-6-yl)-1-(2,5-difluorobenzyl)-1H-1,2,4-triazole-3-carboxamide] was tested. Which Ki did it give?
Its Ki is 10.3 nM.

Which Ki does the source give for `Cc1cc2n(n1)CC[C@H](NC(=O)c1ncn(Cc3cc(F)ccc3F)n1)C(=O)N2C` [Example 305, (S)-1-(2,5-difluorobenzyl)-N-(2,4-dimethyl-5-oxo-5,6,7,8-tetrahydro-4H-pyrazolo[1,5-a][1,3]diazepin-6-yl)-1H-1,2,4-triazole-3-carboxamide] here?
The Ki was 15 nM.

For `CN1C(=O)[C@@H](NC(=O)c2ncn(Cc3cccc(Cl)c3Cl)n2)CCn2nc(C3CC3)cc21` [Example 306, (S)—N-(2-cyclopropyl-4-methyl-5-oxo-5,6,7,8-tetrahydro-4H-pyrazolo[1,5-a][1,3]diazepin-6-yl)-1-(2,3-dichlorobenzyl)-1H-1,2,4-triazole-3-carboxamide], which Ki is on record?
Its Ki is 14.6 nM.

For `CN1C(=O)[C@@H](NC(=O)c2ncn(Cc3ccc(Cl)cc3Cl)n2)CCn2nc(C3CC3)cc21` [Example 307, (S)—N-(2-cyclopropyl-4-methyl-5-oxo-5,6,7,8-tetrahydro-4H-pyrazolo[1,5-a][1,3]diazepin-6-yl)-1-(2,4-dichlorobenzyl)-1H-1,2,4-triazole-3-carboxamide], which Ki is on record?
The Ki was 8.5 nM.

Which Ki does the source give for `CN1C(=O)[C@@H](NC(=O)c2ncn(CC3(C)CC3)n2)CCn2nc(C3CC3)cc21` [Example 308, (S)—N-(2-cyclopropyl-4-methyl-5-oxo-5,6,7,8-tetrahydro-4H-pyrazolo[1,5-a][1,3]diazepin-6-yl)-1-((1-methylcyclopropyl)methyl)-1H-1,2,4-triazole-3-carboxamide] here?
The Ki was 172 nM.

Which Ki does the source give for `CCCC1(C)OCc2cnc(C(=O)N[C@H]3COc4ccccc4N(C)C3=O)nc21` (stereo partly drawn) [Example 309, 7-methyl-N—((S)-5-methyl-4-oxo-2,3,4,5-tetrahydrobenzo[b][1,4]oxazepin-3-yl)-7-propyl-5,7-dihydrofuro[3,4-d]pyrimidine-2-carboxamide] here?
The Ki was 52.8 nM.

`CCC1(C)OCc2cnc(C(=O)N[C@H]3COc4ccccc4N(C)C3=O)nc21` (stereo partly drawn) [Example 310, 7-ethyl-7-methyl-N—((S)-5-methyl-4-oxo-2,3,4,5-tetrahydrobenzo[b][1,4]oxazepin-3-yl)-5,7-dihydrofuro[3,4-d]pyrimidine-2-carboxamide] was tested. Which Ki did it give?
The Ki was 37.2 nM.

`CN1C(=O)[C@@H](NC(=O)c2ncn(Cc3cccc(F)c3F)n2)CCn2nc([C@H]3CC3(F)F)cc21` [Example 311, 1-(2,3-difluorobenzyl)-N—((S)-2-((R)-2,2-difluorocyclopropyl)-4-methyl-5-oxo-5,6,7,8-tetrahydro-4H-pyrazolo[1,5-a][1,3]diazepin-6-yl)-1H-1,2,4-triazole-3-carboxamide] was tested. Which Ki did it give?
The Ki was 5250 nM.

How did the Ki turn out when `CN1C(=O)[C@H](NC(=O)c2ncn(Cc3cccc(F)c3F)n2)CCn2nc([C@H]3CC3(F)F)cc21` [Example 312, 1-(2,3-difluorobenzyl)-N—((R)-2-((R)-2,2-difluorocyclopropyl)-4-methyl-5-oxo-5,6,7,8-tetrahydro-4H-pyrazolo[1,5-a][1,3]diazepin-6-yl)-1H-1,2,4-triazole-3-carboxamide] was run?
The Ki was 17.8 nM.

For `CN1C(=O)[C@@H](NC(=O)c2ncn(Cc3ccc(F)c(F)c3)n2)CCn2nc([C@H]3CC3(F)F)cc21` [Example 313, 1-(3,4-difluorobenzyl)-N—((S)-2-((R)-2,2-difluorocyclopropyl)-4-methyl-5-oxo-5,6,7,8-tetrahydro-4H-pyrazolo[1,5-a][1,3]diazepin-6-yl)-1H-1,2,4-triazole-3-carboxamide], which Ki is on record?
Its Ki is 5940 nM.

`CN1C(=O)[C@H](NC(=O)c2ncn(Cc3ccc(F)c(F)c3)n2)CCn2nc([C@H]3CC3(F)F)cc21` [Example 314, 1-(3,4-difluorobenzyl)-N—((R)-2-((R)-2,2-difluorocyclopropyl)-4-methyl-5-oxo-5,6,7,8-tetrahydro-4H-pyrazolo[1,5-a][1,3]diazepin-6-yl)-1H-1,2,4-triazole-3-carboxamide] was tested. Which Ki did it give?
The Ki was 43.5 nM.

For `CN1C(=O)[C@@H](NC(=O)c2ncn(Cc3ccc(F)cc3F)n2)CCn2nc([C@H]3CC3(F)F)cc21` [Example 315, 1-(2,4-difluorobenzyl)-N—((S)-2-((R)-2,2-difluorocyclopropyl)-4-methyl-5-oxo-5,6,7,8-tetrahydro-4H-pyrazolo[1,5-a][1,3]diazepin-6-yl)-1H-1,2,4-triazole-3-carboxamide], which Ki is on record?
Its Ki is 9500 nM.

Which Ki does the source give for `CN1C(=O)[C@H](NC(=O)c2ncn(Cc3ccc(F)cc3F)n2)CCn2nc([C@H]3CC3(F)F)cc21` [Example 316, 1-(2,4-difluorobenzyl)-N—((R)-2-((R)-2,2-difluorocyclopropyl)-4-methyl-5-oxo-5,6,7,8-tetrahydro-4H-pyrazolo[1,5-a][1,3]diazepin-6-yl)-1H-1,2,4-triazole-3-carboxamide] here?
Its Ki is 31.8 nM.

How did the Ki turn out when `CN1C(=O)[C@@H](NC(=O)c2ncn(Cc3ccc(F)cc3)n2)CCn2nc([C@H]3CC3(F)F)cc21` [Example 317, N—((S)-2-((R)-2,2-difluorocyclopropyl)-4-methyl-5-oxo-5,6,7,8-tetrahydro-4-pyrazolo[1,5-a][1,3]diazepin-6-yl)-1-(4-fluorobenzyl)-1H-1,2,4-triazole-3-carboxamide] was run?
Its Ki is 6610 nM.

With `CN1C(=O)[C@H](NC(=O)c2ncn(Cc3ccc(F)cc3)n2)CCn2nc([C@H]3CC3(F)F)cc21` [Example 318, N—((R)-2-((R)-2,2-difluorocyclopropyl)-4-methyl-5-oxo-5,6,7,8-tetrahydro-4H-pyrazolo[1,5-a][1,3]diazepin-6-yl)-1-(4-fluorobenzyl)-1H-1,2,4-triazole-3-carboxamide] as the molecule, how does the Ki read?
The Ki was 25.3 nM.

`CC[C@]1(C)OCc2cnc(C(=O)N[C@H]3CCn4nc([C@H]5CC5(F)F)cc4N(C)C3=O)cc21` [Example 319, (S)—N—((S)-2-((R)-2,2-difluorocyclopropyl)-4-methyl-5-oxo-5,6,7,8-tetrahydro-4H-pyrazolo[1,5-a][1,3]diazepin-6-yl)-1-ethyl-1-methyl-1,3-dihydrofuro[3,4-c]pyridine-6-carboxamide] was tested. Which Ki did it give?
Its Ki is over 10000 nM.

For `CN1C(=O)[C@@H](NC(=O)c2ncn(Cc3cccc(F)c3F)n2)CCn2nc([C@@H]3CC3(F)F)cc21` [Example 320, 1-(2,3-difluorobenzyl)-N—((S)-2-((S)-2,2-difluorocyclopropyl)-4-methyl-5-oxo-5,6,7,8-tetrahydro-4H-pyrazolo[1,5-a][1,3]diazepin-6-yl)-1H-1,2,4-triazole-3-carboxamide], which Ki is on record?
The Ki was 16.4 nM.

How did the Ki turn out when `CN1C(=O)[C@@H](NC(=O)c2ncn(Cc3ccc(F)c(F)c3)n2)CCn2nc([C@@H]3CC3(F)F)cc21` [Example 321, 1-(3,4-difluorobenzyl)-N—((S)-2-((S)-2,2-difluorocyclopropyl)-4-methyl-5-oxo-5,6,7,8-tetrahydro-4H-pyrazolo[1,5-a][1,3]diazepin-6-yl)-1H-1,2,4-triazole-3-carboxamide] was run?
The Ki was 67 nM.

For `CN1C(=O)[C@@H](NC(=O)c2ncn(Cc3ccc(F)cc3F)n2)CCn2nc([C@@H]3CC3(F)F)cc21` [Example 322, 1-(2,4-difluorobenzyl)-N—((S)-2-((S)-2,2-difluorocyclopropyl)-4-methyl-5-oxo-5,6,7,8-tetrahydro-4H-pyrazolo[1,5-a][1,3]diazepin-6-yl)-1H-1,2,4-triazole-3-carboxamide], which Ki is on record?
The Ki was 28.6 nM.

Which Ki does the source give for `CN1C(=O)[C@@H](NC(=O)c2ncn(Cc3ccc(F)cc3)n2)CCn2nc([C@@H]3CC3(F)F)cc21` [Example 323, N—((S)-2-((S)-2,2-difluorocyclopropyl)-4-methyl-5-oxo-5,6,7,8-tetrahydro-4H-pyrazolo[1,5-a][1,3]diazepin-6-yl)-1-(4-fluorobenzyl)-1H-1,2,4-triazole-3-carboxamide] here?
Its Ki is 57.8 nM.

With `CC[C@@]1(C)OCc2cnc(C(=O)N[C@@H]3CCn4nc([C@H]5CC5(F)F)cc4N(C)C3=O)cc21` [Example 324, (R)—N—((R)-2-((R)-2,2-difluorocyclopropyl)-4-methyl-5-oxo-5,6,7,8-tetrahydro-4H-pyrazolo[1,5-a][1,3]diazepin-6-yl)-1-ethyl-1-methyl-1,3-dihydrofuro[3,4-c]pyridine-6-carboxamide] as the molecule, how does the Ki read?
Its Ki is 1290 nM.

With `CC[C@@]1(C)OCc2cnc(C(=O)N[C@H]3CCn4nc([C@@H]5CC5(F)F)cc4N(C)C3=O)cc21` [Example 325, (R)—N—((S)-2-((S)-2,2-difluorocyclopropyl)-4-methyl-5-oxo-5,6,7,8-tetrahydro-4H-pyrazolo[1,5-a][1,3]diazepin-6-yl)-1-ethyl-1-methyl-1,3-dihydrofuro[3,4-c]pyridine-6-carboxamide] as the molecule, how does the Ki read?
Its Ki is 3340 nM.

`CCC1(C)OCc2cnc(C(=O)N[C@H]3CCn4nc(C)cc4N(C)C3=O)nc21` (stereo partly drawn) [Example 326, N—((S)-2,4-dimethyl-5-oxo-5,6,7,8-tetrahydro-4H-pyrazolo[1,5-a][1,3]diazepin-6-yl)-7-ethyl-7-methyl-5,7-dihydrofuro[3,4-d]pyrimidine-2-carboxamide] was tested. Which Ki did it give?
The Ki was 618 nM.

For `CN1C(=O)[C@@H](NC(=O)c2cc(C3(O)CCC3)ccn2)COc2ccccc21` [Example 327, (S)-4-(1-hydroxycyclobutyl)-N-(5-methyl-4-oxo-2,3,4,5-tetrahydrobenzo[b][1,4]oxazepin-3-yl)picolinamide], which Ki is on record?
Its Ki is 1370 nM.

Source: patent publication US10988459B2 (priority 2015, dated 2021)
